Drawing on the METLIN SMRT retention time set (Domingo-Almenara et al. 2019), this text covers RP-LC retention time for 81 compounds.

This data set is described as follows: gradient 5% acetonitrile 3 min, to 50% in 2 min, to 85% in 15 min, held 3 min, 100 µL/min. As to conditions: column: Zorbax Extend-C18 2.1 x 50 mm; eluents: water / acetonitrile, 0.1% formic acid. In outline:
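Data were gathered over 3 months by HPLC coupled to a quadrupole time-of-flight mass spectrometer, operated in positive and negative ionization mode. Mixtures of ~100 pure standards ran on a Zorbax Extend-C18 column (2.1 × 50 mm, 1.8 μm) at 100 μL/min, with water and acetonitrile each containing 0.1% formic acid and dead and dwell volumes of 40 μL and 900 μL. Retention time was read from adduct peaks picked by computer and checked manually.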
For `O=C(Nc1cccc(OCc2nnc(-c3ccccc3)o2)c1)c1ccnc(Cl)c1`, the RP-LC retention time was determined as 926 s.

Turning to `Cn1nc(N2CCC(NC(=O)Cc3cccs3)C2)ccc1=O` (stereo unspecified), the RP-LC retention time stood at 627 s.

On to `Cc1ccc(C(CNC(=O)c2cc(-c3ccc4c(c3)CCCC4)on2)N2CCN(C)CC2)o1` (stereo unspecified), for which the RP-LC retention time is 838 s.

As for `O=C(CCc1c(-c2ccc(Cl)cc2)nc2ccccn12)NCc1ccccn1`, the RP-LC retention time came out at 571 s.

The compound `O=C(CN1C(=O)CCCc2ccccc21)NCCc1ccccc1` showed an RP-LC retention time of 783 s.

The compound `COc1ccc(NC(=O)CSc2nccnc2Oc2ccc(C)cc2)cc1OC` returned an RP-LC retention time of 955 s.

Compound `CCSc1nnc2c(n1)OC(c1cccn1C)N(C(C)=O)c1ccccc1-2` (stereo unspecified) gave an RP-LC retention time of 788 s.

Regarding `COc1ccc(C(=O)N2CCCCC2c2nncn2C)cn1` (stereo unspecified), the RP-LC retention time worked out at 603 s.

For the compound `CCN1c2ccc(F)cc2C(=O)NC12CCN(C(=O)c1cc(OC)cc(OC)c1)CC2`, the RP-LC retention time was 782 s.

Compound `Cc1cc(=O)n(CC(=O)Nc2ccc(F)cc2Cl)c(N2CCOCC2)n1` showed an RP-LC retention time of 672 s.

With `O=C(CCc1ccc2c(c1)CN(S(=O)(=O)c1cccc3nsnc13)CCO2)NC1CC1`, the RP-LC retention time came to 756 s.

Regarding `Cc1nc(CC(=O)Nc2ccc(F)cc2F)cs1`, the RP-LC retention time amounted to 739 s.

Compound `CCc1noc(-c2ccc(-n3ncc(C(=O)N4CCC(C)CC4)c3C)nc2)n1` yielded an RP-LC retention time of 1020 s.

Turning to `COc1ccc(-c2cc3n(n2)CCCN(S(=O)(=O)c2ccc4c(c2)CCC4)C3)cc1`, the RP-LC retention time is 1080 s.

In turn, `O=C(O)c1cn(Cc2ccc(F)cc2)c(=O)c2ccccc12` returned an RP-LC retention time of 806 s.

In the case of `O=C(c1n[nH]c2ccccc12)N1CCCn2nc(-c3ccncc3)cc2C1`, the RP-LC retention time stood at 603 s.

`CCOc1ccc(C(=O)N2CCCC2c2nc(-c3ccc(OC)c(OC)c3)no2)cc1OCC` (stereo unspecified) came in with an RP-LC retention time of 916 s.

The compound `Cc1ccc(N(C)C(=O)c2nc(N3CCSCC3)c3cnn(C)c3n2)cc1` returned an RP-LC retention time of 812 s.

Regarding `CCOc1ccc(NC(=O)N2CCC3(C2)C(=O)Nc2ccccc23)cc1` (stereo unspecified), the RP-LC retention time was found to be 720 s.

`COc1cccc(CNC(=O)c2cc3c(-c4cccs4)nn(-c4ccccc4)c3n2C)c1` came in with an RP-LC retention time of 1120 s.

In turn, `COc1ccc(CN2CC3(CCN(S(=O)(=O)c4cn(C)cn4)CC3)C2=O)cc1` displayed an RP-LC retention time of 688 s.

In turn, `COc1ccc(Cn2nc3c(S(=O)(=O)N4CCOCC4)cccn3c2=O)cc1` gave an RP-LC retention time of 734 s.

In turn, `Cc1noc(C)c1CCC(=O)N1CCCCC1c1nncn1CC1CC1` (stereo unspecified) returned an RP-LC retention time of 655 s.

`CCCC(=O)N1CCCC(COc2ccc(C(=O)NC(C)C)cc2)C1` (stereo unspecified) returned an RP-LC retention time of 784 s.

With `CCOC(=O)[C@H](C)C[C@@H](Cc1ccc(-c2ccccc2)cc1)NC(=O)CCC(=O)O`, the RP-LC retention time came out at 1010 s.

`O=C(c1cn(-c2cc(N3CCSCC3)ncn2)cn1)N1CCN(C2CCCCC2)CC1` registered an RP-LC retention time of 635 s.

For the compound `Cc1cc(=O)n(CC(=O)Nc2ccc(Br)cc2)c(N2CCOCC2)n1`, the RP-LC retention time stood at 712 s.

The compound `FC(F)(F)c1cccc(N2CCN(c3ncnc4sccc34)CC2)c1` returned an RP-LC retention time of 987 s.

Regarding `CCN1CCN(C(=O)Nc2ccc(Br)cc2F)c2cccnc21`, the RP-LC retention time is 659 s.

`Cc1ccc2c(c1)N(C)N=C(C(=O)N1CCOCC1)S2(=O)=O` gave an RP-LC retention time of 669 s.

`N#Cc1cccc(-c2cn3c(n2)N(C(=O)c2ccccc2)CCC3)c1` returned an RP-LC retention time of 708 s.

`Cc1nc(CC(=O)NCCc2c[nH]c3ccc(Cl)cc23)cs1`: the RP-LC retention time is 754 s.

Regarding `COC(=O)c1ccc(C2CC(=O)Nc3c(-c4ccc(OC)cc4)csc32)cc1` (stereo unspecified), the RP-LC retention time came to 1000 s.

For the compound `Cc1ccc(Nc2c(-c3ccc(Cl)cc3)nc3cccc(C)n23)cc1`, the RP-LC retention time turned out to be 810 s.

Consider `CCn1c(=O)sc2cc(S(=O)(=O)N3CCC(C(=O)Nc4ccccn4)CC3)ccc21`, for which the RP-LC retention time came out at 751 s.

Consider `Cn1c(=O)c(N2CCC(C(=O)NCc3ccco3)CC2)nc2ccccc21`, for which the RP-LC retention time came out at 774 s.

`CCCc1nc2cccnc2n1C1CCN(C(=O)c2ccc(C)c(N3CCCC3=O)c2)C1` (stereo unspecified) registered an RP-LC retention time of 580 s.

Regarding `CCc1nc2cc(-c3noc(Cc4ccccc4F)n3)ccc2o1`, the RP-LC retention time amounted to 1050 s.

`O=C(COc1ccccc1)Nc1nc(-c2ccc(Cl)cc2)cs1` registered an RP-LC retention time of 1130 s.

In turn, `CCc1nncn1C1CCN(S(=O)(=O)c2cc(Cl)ccc2OC)CC1` yielded an RP-LC retention time of 709 s.

Take `Cc1ccn2cc(CCNC(=O)c3ccc(C(F)(F)F)cc3)nc2c1`: the RP-LC retention time amounted to 580 s.

`COc1ccccc1N1C(=O)N(c2ccc([N+](=O)[O-])cc2)C2CS(=O)(=O)CC21` (stereo unspecified) came in with an RP-LC retention time of 745 s.

The compound `O=C(Nc1ccc(N2CCN(C3CCCCC3)C2=O)nc1)c1cc(F)cc(F)c1` gave an RP-LC retention time of 1020 s.

Consider `O=C(Nc1cnc(N2CCCCCC2)nc1)C1CC1`, for which the RP-LC retention time was determined as 714 s.

As for `O=C(Cc1ccccc1)N1CCC(Nc2cccn3ncnc23)CC1`, the RP-LC retention time is 713 s.

Regarding `COc1ccccc1CNC(=O)c1cn2cc(C)ccc2n1`, the RP-LC retention time came out at 681 s.

Regarding `O=C1CN(S(=O)(=O)c2ccc(F)c(Cl)c2)CC2(CCCCC2)N1C1CCCC1`, the RP-LC retention time worked out at 1240 s.

Compound `COCCn1nnnc1C1CC2(CCOCC2)C(=O)N1Cc1cc(F)cc(F)c1` (stereo unspecified) had an RP-LC retention time of 740 s.

In turn, `CCOc1ccc(C2c3c(oc4ccc(C)cc4c3=O)C(=O)N2CCCN2CCOCC2)cc1` (stereo unspecified) showed an RP-LC retention time of 812 s.

On to `COc1ccc(C(=O)CSc2nnnn2-c2cccc(C)c2)cc1`, for which the RP-LC retention time was 941 s.

`COc1ccc2c(c1)CCc1sc(NC(=O)c3cccc(Br)c3)nc1-2` registered an RP-LC retention time of 1240 s.

Turning to `CCOc1nc2ccccc2nc1N1CCCC(C(=O)Nc2cc(C)cc(C)c2)C1` (stereo unspecified), the RP-LC retention time was 1320 s.

`CN(C)S(=O)(=O)c1ccc(-c2nnc(C(=O)NCc3ccccn3)o2)cc1` showed an RP-LC retention time of 649 s.

`Cc1ccccc1NC(=O)CC1COc2ccccc2NC1=O` (stereo unspecified) had an RP-LC retention time of 700 s.

The compound `O=C(NCc1ccc(F)c(Cl)c1)C1CCN(c2nnc3ccccn23)CC1` came in with an RP-LC retention time of 686 s.

The compound `CCCCc1nc(SCC(=O)Nc2nc(-c3ccc(Br)cc3)cs2)n[nH]1` came in with an RP-LC retention time of 1050 s.

`Cc1ccc(F)c(NC(=O)c2cnc(-c3ccc(F)cc3)nc2-c2ccncc2)c1`: the RP-LC retention time turned out to be 954 s.

In turn, `Cc1nc(-c2cn(C(C)C)c3ncccc23)sc1C(=O)NC1CCCC1` returned an RP-LC retention time of 1000 s.

In turn, `O=C(NCc1ccc(F)cc1)c1ccc(-c2ccsc2)nc1` gave an RP-LC retention time of 854 s.

`CC1(C(=O)NCc2cc(F)ccc2F)CCCCC(=O)N1` (stereo unspecified) showed an RP-LC retention time of 674 s.

Take `CN(C)c1ccc(CNC(=O)c2cc3n(n2)CC(C)(C(=O)NCc2ccccc2)N(C)C3=O)cc1` (stereo unspecified): the RP-LC retention time is 607 s.

On to `CC(C)NC(=O)c1ccc2c(c1)nc(CN(C)C(=O)NCc1ccco1)n2C`, for which the RP-LC retention time came to 602 s.

Turning to `CCn1c(C2CCN(S(=O)(=O)c3cccc4nsnc34)C2)nc2cccnc21` (stereo unspecified), the RP-LC retention time amounted to 705 s.

The compound `CC(=O)Nc1ccc(S(=O)(=O)N2CCC(CN3CCCCCC3)CC2)cc1` showed an RP-LC retention time of 588 s.

With `Cc1cccc(Cn2c(CN3CCC(C(=O)NC(C)C)CC3)cc3ccccc32)c1`, the RP-LC retention time worked out at 737 s.

As for `CC(=O)Nc1cccc(-c2nc(-c3ccc4c(c3)nnn4C3CCCC3)no2)c1`, the RP-LC retention time stood at 1010 s.

Compound `COc1ccc(-c2csc3c(=O)n(CC(=O)NC4CCCC4)cnc23)cc1` yielded an RP-LC retention time of 832 s.

With `COc1ccc(Cn2c(C)c(CNCc3ccccn3)c(C(=O)O)c2C)cc1`, the RP-LC retention time stood at 690 s.

The compound `CCOC(=O)C1CCC(CNC(=O)Nc2cc3c(cc2N2CCCCC2)n(C)c(=O)n3C)CC1` (stereo unspecified) came in with an RP-LC retention time of 689 s.

Compound `O=C(Nc1cccc(Nc2ncc(Br)c(NCCc3cnc[nH]3)n2)c1)N1CCCC1` came in with an RP-LC retention time of 592 s.

Compound `CCSc1nnc(-c2nn(C)c3c2CN(C(=O)Nc2ccc(OC)cc2)CC3)n1CC` showed an RP-LC retention time of 809 s.

With `O=C(O)CCCCC1SCC2NC(=O)NC21` (stereo unspecified), the RP-LC retention time came out at 634 s.

With `COc1cc(NC(=O)N(C)CCc2noc(COc3ccc(F)cc3)n2)cc(OC)c1`, the RP-LC retention time was 874 s.

Take `CSc1ccc(CNC(=O)CCc2c(-c3ccc(Br)cc3)nc3ccccn23)cc1`: the RP-LC retention time was 714 s.

`CSc1ccc(CNC(=O)C2CCCN(c3nccc(C)n3)C2)cc1` (stereo unspecified) displayed an RP-LC retention time of 763 s.

In the case of `O=C(NCCN1CCOCC1)c1nc(Nc2ccc(F)cc2)c2ccccc2n1`, the RP-LC retention time turned out to be 592 s.

Compound `CCc1ccc(CNC(=O)CN2CCc3ccccc3C2C(=O)N2CCCC2)cc1` (stereo unspecified) returned an RP-LC retention time of 860 s.

The compound `COc1ccc(OC)c(NC(=O)Cn2ccc3c(=O)n(C)c(=O)n(C)c32)c1` displayed an RP-LC retention time of 670 s.

`Cc1ccc(F)cc1NS(=O)(=O)c1cc2n(c1)CCCN(C)C2=O` gave an RP-LC retention time of 716 s.

For the compound `O=C(CCn1nnc2cc(-c3noc(-c4ccc(F)cc4)n3)ccc21)N1CCOCC1`, the RP-LC retention time was 849 s.

With `COc1ccccc1CNC(=O)C1CCN(c2cc(N3CCOCC3)ncn2)CC1`, the RP-LC retention time came out at 619 s.
